# Test results: publication PMC6941952, “A homogeneous bioluminescent immunoassay to probe cellular signaling pathway regulation” (Communications Biology, 2020)
# “And” between values parts separate entries of the source, which are not always exact repeats. Equal values may be shown once.
# Tested on: total IκBα
# Assay: NanoBiT cell-based immunoassay, total IκBα in MCF-7 cells
# Design: species or system human
# Details: for Average IkB protein (%) / Raw data IkB / Subtract reagent background IkB / protein (%) IkB: MCF-7, Fig 7c; for protein (%) IkB: replicate; for IkB degradation (% compared to no IKK16), Average / IkB degradation (% compared to no IKK16) / Non-Treated/Treated / Raw data / Subtract reagent background: TNF; for IkB degradation (% compared to no IKK16), Average: average of replicates; for IkB degradation (% compared to no IKK16) / Non-Treated/Treated / Raw data / Subtract reagent background: single replicates
# Protocol: Prior to NanoBiT Cell-Based Immunoassay, 50,000 cells were seeded in 160 µl of complete growth media per well of a 96-well plate and incubated overnight. […] If necessary, the cell culture media were replaced with serum-free media after the cells were stably adherent on the plate and incubated overnight. To treat cells with activators or inhibitors, medium was changed to 30 µl of medium containing inhibitors. If activation of a specific pathway is needed, the cells were stimulated with 10 µl of medium containing activators. To lyse the cells, 10 µl of lysis buffer containing 0.1% digitonin diluted in 1X immunoassay buffer with protease and phosphatase inhibitors was added and the plates were mixed vigorously for 20 min. Then, 50 µl of an antibody mix containing two primary antibodies against the target protein and NanoBiT detecting antibodies (0.3 µl each per well), diluted in 1X immunoassay buffer was added to the lysates. The plates were incubated at 23 °C for 90 min, followed by the addition of 25 µl of Nano-Glo® reagent consisting of Nano-Glo® Luciferase Assay Substrate mixed with 1X immunoassay buffer. Luminescence was measured using a plate-reading luminometer.
# Single dose or dose response inhibitor treatments were performed prior to activation of the pathways as follows. For IκBα, the cells were treated in 30 µl medium with IKK16 or MG132 for 60 min before the addition of 10 µl of DMEM containing appropriate concentration of TNFα. To measure phosphorylation of AKT or STAT3, the corresponding NanoBiT immunoassays were developed with MCF-7 or A431 cells, respectively, according the same scheme used to develop the IκBα assay using the primary antibodies for AKT and STAT3 described in the reagents section. […] Treatment with LY294002 was performed in 30 µl medium and cells were incubated for 60 min before the addition of 1 µM Insulin. To measure STAT3 phosphorylation, A431 cells were incubated overnight in DMEM medium without serum. […] After addition of the stimulators, the cells were incubated for additional times as follows. IκBα phosphorylation and degradation analyses required both time courses and single time points as described in figures. […] The NanoBiT immunoassay protocol was followed as described above.
# All 96-well assay plates were read using a GloMax® 96 Microplate Luminometer from Promega. The instrument was set to 0.5 s integration time. In order to obtain net change of signal, the reagent background values (signal from the well containing all reagent except primary antibodies) were subtracted from the sample values. To plot and analyze the data, Microsoft Excel and GraphPad Prism® Software were used. IC50 values were determined by using a nonlinear regression fit to a sigmoidal dose response (variable slope).
# [1] = MCF-7 cells, IKK16 0.000762939 uM
# [2] = MCF-7 cells, IKK16 0.00305176 uM
# [3] = MCF-7 cells, IKK16 0.0488281 uM
structure (smiles),measurement,setting,value
C[C@]12CC[C@@H]3c4ccc(O)cc4C[C@@H](CCCCCCCCC[S+]([O-])CCCC(F)(F)C(F)(F)F)[C@H]3[C@@H]1CC[C@@H]2O (stereo partly shown) [Fulvestrant],Average IkB protein (%),"Fulvestrant 0.0976562 nM, 4 h",103.1%
same,Raw data IkB,"Fulvestrant 0.0976562 nM, 4 h",2320000 and 2388000 and 2321000
same,Subtract reagent background IkB,"Fulvestrant 0.0976562 nM, 4 h",2160700 and 2093700 and 2092700
same,protein (%) IkB,"Fulvestrant 0.0976562 nM, 4 h",102.8% and 100.3% and 106.3%
same,Average IkB protein (%),"Fulvestrant 0.195312 nM, 4 h",102.8%
same,Raw data IkB,"Fulvestrant 0.195312 nM, 4 h",2292000 and 2388000 and 2330000
same,Subtract reagent background IkB,"Fulvestrant 0.195312 nM, 4 h",2161100 and 2103100 and 2065100
same,protein (%) IkB,"Fulvestrant 0.195312 nM, 4 h",102.8% and 100.7% and 104.9%
same,Average IkB protein (%),"Fulvestrant 0.390625 nM, 4 h",106.4%
same,Raw data IkB,"Fulvestrant 0.390625 nM, 4 h",2337000 and 2479000 and 2412000
same,Subtract reagent background IkB,"Fulvestrant 0.390625 nM, 4 h",2252550 and 2185550 and 2110550
same,protein (%) IkB,"Fulvestrant 0.390625 nM, 4 h",107.1% and 104.7% and 107.3%
same,Average IkB protein (%),"Fulvestrant 0.78125 nM, 4 h",107.7%
same,Raw data IkB,"Fulvestrant 0.78125 nM, 4 h",2309000 and 2550000 and 2458000
same,Subtract reagent background IkB,"Fulvestrant 0.78125 nM, 4 h",2323650 and 2231650 and 2082650
same,protein (%) IkB,"Fulvestrant 0.78125 nM, 4 h",110.5% and 106.9% and 105.8%
same,Average IkB protein (%),"Fulvestrant 1.5625 nM, 4 h",109.4%
same,Raw data IkB,"Fulvestrant 1.5625 nM, 4 h",2305000 and 2596000 and 2525000
same,Subtract reagent background IkB,"Fulvestrant 1.5625 nM, 4 h",2368700 and 2297700 and 2077700
same,protein (%) IkB,"Fulvestrant 1.5625 nM, 4 h",110.1% and 105.6%
same,Average IkB protein (%),"Fulvestrant 3.125 nM, 4 h",110.7%
same,Raw data IkB,"Fulvestrant 3.125 nM, 4 h",2392000 and 2556000 and 2547000
same,Subtract reagent background IkB,"Fulvestrant 3.125 nM, 4 h",2330150 and 2321150 and 2166150
same,protein (%) IkB,"Fulvestrant 3.125 nM, 4 h",110.8% and 111.2% and 110.1%
same,Average IkB protein (%),"Fulvestrant 6.25 nM, 4 h",107.5%
same,Raw data IkB,"Fulvestrant 6.25 nM, 4 h",2316000 and 2499000 and 2485000
same,Subtract reagent background IkB,"Fulvestrant 6.25 nM, 4 h",2273600 and 2259600 and 2090600
same,protein (%) IkB,"Fulvestrant 6.25 nM, 4 h",108.1% and 108.2% and 106.2%
same,Average IkB protein (%),"Fulvestrant 25 nM, 4 h",102.2%
same,Raw data IkB,"Fulvestrant 25 nM, 4 h",2228000 and 2399000 and 2343000
same,Subtract reagent background IkB,"Fulvestrant 25 nM, 4 h",2174600 and 2118600 and 2003600
same,protein (%) IkB,"Fulvestrant 25 nM, 4 h",103.4% and 101.5% and 101.8%
same,Average IkB protein (%),"Fulvestrant 50 nM, 4 h",99.5%
same,Raw data IkB,"Fulvestrant 50 nM, 4 h",2216000 and 2302000 and 2278000
same,Subtract reagent background IkB,"Fulvestrant 50 nM, 4 h",2078950 and 2054950 and 1992950
same,protein (%) IkB,"Fulvestrant 50 nM, 4 h",98.9% and 98.4% and 101.3%
same,Average IkB protein (%),"Fulvestrant 100 nM, 4 h",94.0%
same,Raw data IkB,"Fulvestrant 100 nM, 4 h",2084000 and 2146000 and 2219000
same,Subtract reagent background IkB,"Fulvestrant 100 nM, 4 h",1926250 and 1999250 and 1864250
same,protein (%) IkB,"Fulvestrant 100 nM, 4 h",91.6% and 95.8% and 94.7%
same,cytotoxicity inferred from IκBα level,"MCF-7 cells, 4 h",lack of cytotoxicity
same,effect on IκBα protein level,"MCF-7 cells, 4 h, same compound titration",did not affect
O=C(c1ccc(Nc2nccc(-c3cc4ccccc4s3)n2)cc1)N1CCC(N2CCCC2)CC1 [IKK16],Total IkB Raw data,Figure 3a and 3b,147500 and 141100 and 148400
same,Total IkB Subtract reagent background,Figure 3a and 3b,129800 and 128900 and 122500
same,Total IkB Average,"Figure 3a and 3b, background subtracted",127067
same,TNFα-induced reduction of total IκBα protein,"MCF-7 cells, 10 µM 1 h, TNFα 50 ng per ml 10 min",abolished
same,"IkB degradation (% compared to no IKK16), Average",[1],98.1%
same,IkB degradation (% compared to no IKK16),[1],101% and 97% and 93%
same,Non-Treated/Treated,[1],4.060 and 4.672 and 4.565 and 4.365
same,Raw data,[1],21820 and 22100 and 21310 and 21710
same,Subtract reagent background,[1],13931 and 13141 and 13541 and 13651
same,"IkB degradation (% compared to no IKK16), Average",[2],96.3%
same,IkB degradation (% compared to no IKK16),[2],103% and 93% and 95% and 94%
same,Non-Treated/Treated,[2],4.119 and 4.303 and 4.479 and 4.413
same,Raw data,[2],21670 and 21900 and 22440 and 21970
same,Subtract reagent background,[2],13731 and 14271 and 13801 and 13501
same,"IkB degradation (% compared to no IKK16), Average","MCF-7 cells, IKK16 0.012207 uM",97.0%
same,IkB degradation (% compared to no IKK16),"MCF-7 cells, IKK16 0.012207 uM",101% and 95% and 99% and 94%
same,Non-Treated/Treated,"MCF-7 cells, IKK16 0.012207 uM",4.063 and 4.367 and 4.623 and 4.410
same,Raw data,"MCF-7 cells, IKK16 0.012207 uM",21680 and 22090 and 22230 and 21540
same,Subtract reagent background,"MCF-7 cells, IKK16 0.012207 uM",13921 and 14061 and 13371 and 13511
same,"IkB degradation (% compared to no IKK16), Average",[3],102.5%
same,IkB degradation (% compared to no IKK16),[3],101% and 107% and 103% and 99%
same,Non-Treated/Treated,[3],4.060 and 4.927 and 4.840 and 4.651
same,Raw data,[3],20980 and 22100 and 20630 and 20940
same,Subtract reagent background,[3],13931 and 12461 and 12771 and 12811
same,"IkB degradation (% compared to no IKK16), Average","MCF-7 cells, IKK16 0.195312 uM",98.7%
same,IkB degradation (% compared to no IKK16),"MCF-7 cells, IKK16 0.195312 uM",99% and 97% and 98% and 100%
same,Non-Treated/Treated,"MCF-7 cells, IKK16 0.195312 uM",3.986 and 4.488 and 4.616 and 4.698
same,Raw data,"MCF-7 cells, IKK16 0.195312 uM",20850 and 22360 and 21850 and 21560
same,Subtract reagent background,"MCF-7 cells, IKK16 0.195312 uM",14191 and 13681 and 13391 and 12681
same,"IkB degradation (% compared to no IKK16), Average","MCF-7 cells, IKK16 0.78125 uM",84.0%
same,IkB degradation (% compared to no IKK16),"MCF-7 cells, IKK16 0.78125 uM",86% and 82% and 85%
same,Non-Treated/Treated,"MCF-7 cells, IKK16 0.78125 uM",3.457 and 3.811 and 3.985 and 3.866
same,Raw data,"MCF-7 cells, IKK16 0.78125 uM",23580 and 24530 and 24280 and 23680
same,Subtract reagent background,"MCF-7 cells, IKK16 0.78125 uM",16361 and 16111 and 15511 and 15411
same,"IkB degradation (% compared to no IKK16), Average","MCF-7 cells, IKK16 3.125 uM",40.0%
same,IkB degradation (% compared to no IKK16),"MCF-7 cells, IKK16 3.125 uM",42% and 41% and 39% and 38%
same,Non-Treated/Treated,"MCF-7 cells, IKK16 3.125 uM",1.686 and 1.873 and 1.836 and 1.807
same,Raw data,"MCF-7 cells, IKK16 3.125 uM",41140 and 41710 and 40950 and 41840
same,Subtract reagent background,"MCF-7 cells, IKK16 3.125 uM",33541 and 32781 and 33671 and 32971
same,IC50,"MCF-7 cells, pretreated 1 h, then TNFα 50 ng per ml 30 min, read-out: IC50, inhibition of TNFα induced degradation of IκBα",1440 nM
